# Data from US20230287051A1, “INHIBITORS OF COMPLEMENT FACTOR C3 AND THEIR MEDICAL USES” (ZP SPV 3 K/S, priority 2020, published 2023).
# Numbered stars: 1 amine (or outer) side, 2 acyl side, 3 side chain; on linkers, the order of the positions; unused ones are H or OH. Bridge positions count the residues as written; N and C are the ends. Square brackets hold non-standard residues; d marks the D form. Side chains are listed from the residue outwards. Peptide text beside a SMILES is read from it. * marks the point of attachment. Trp(1-Me) = Cn1cc(C[C@H](N)C(=O)O)c2ccccc21; C18 diacid = O=C(O)CCCCCCCCCCCCCCCCC(=O)*; γGlu = O=C(O)[C@H](CCC(=O)[*:2])N[*:1]; AEEA = NCCOCCOCC(=O)O; CH2 = C([*:1])[*:2]; Sar = CNCC(=O)O
# B1: Compound 7 (peptide)
# peptide: Ac-SEFCI[Trp(1-Me)]QDW[Sar]EHRC[Sar]E[AEEA][AEEA]K([γGlu-Gly-γGlu-C18 diacid])-NH2
# modifications: bridge 4-14 via methylene thioacetal (-S-CH2-S-)
# notes: Synthetic compstatin analogue; also called Comp No 7
# B2: Compound 12 (peptide)
# peptide: Ac-EFCI[Trp(1-Me)]QDW[Sar]EHRCTEA[AEEA][AEEA]K([γGlu-Gly-γGlu-C18 diacid])-NH2
# modifications: bridge 3-13 via methylene thioacetal (-S-CH2-S-)
# notes: Synthetic compstatin analogue; also called Comp No 12
# B3: Compound 15 (peptide)
# peptide: Ac-[dY]ICI[Trp(1-Me)]QDW[Sar]EHRCTEGE[AEEA]ESK([γGlu-C18 diacid])-NH2
# modifications: bridge 3-13 via methylene thioacetal (-S-CH2-S-)
# notes: Synthetic compstatin analogue; also called Comp No 15
# B4: Compound 1 (peptide)
# peptide: SEFCIWQDWGEHRCTGAES
# modifications: N-terminal acetyl; 1-Me-Trp at 6; Cys4 and Cys14 bridged by methylene thioacetal (-S-CH2-S-); C-terminal amide
# notes: Synthetic compstatin analogue; also called Comp No 1
# B5: Compound 27 (peptide)
# peptide: Ac-EGESGFCI[Trp(1-Me)]QDW[Sar]EHRCTEGE[AEEA][AEEA]K([γGlu-Gly-γGlu-C18 diacid])-NH2
# modifications: bridge 7-17 via methylene thioacetal (-S-CH2-S-)
# notes: Synthetic compstatin analogue; also called Comp No 27
# B6: Compound 28 (peptide)
# peptide: Ac-GQSAFCI[Trp(1-Me)]QDW[Sar]EHRCTEGE[AEEA][AEEA]K([γGlu-Gly-γGlu-C18 diacid])-NH2
# modifications: bridge 6-16 via methylene thioacetal (-S-CH2-S-)
# notes: Synthetic compstatin analogue; also called Comp No 28
# B7: Compound 29 (peptide)
# peptide: H-ESGVFCI[Trp(1-Me)]QDW[Sar]EHRCTEGE[AEEA][AEEA]K([γGlu-Gly-γGlu-C18 diacid])-NH2
# modifications: bridge 6-16 via methylene thioacetal (-S-CH2-S-)
# notes: Synthetic compstatin analogue; also called Comp No 29
# B8: Compound 10 (peptide)
# peptide: Ac-SEFCI[Trp(1-Me)]QDW[Sar]EHRCTE[AEEA][AEEA]K([γGlu-Gly-γGlu-C18 diacid])-NH2
# modifications: bridge 4-14 via methylene thioacetal (-S-CH2-S-)
# notes: Synthetic compstatin analogue; also called Comp No 10
# B9: Compound 20 (peptide)
# peptide: Ac-EGSEFCI[Trp(1-Me)]QDW[Sar]EHRCTEGE[AEEA]ESK([γGlu-C18 diacid])-NH2
# modifications: bridge 6-16 via methylene thioacetal (-S-CH2-S-)
# notes: Synthetic compstatin analogue; also called Comp No 20
# B10: Compound 19 (peptide)
# peptide: EGSEFCIWQDWGEHRCTEGE
# modifications: N-terminal [15-Carboxy-pentadecanoyl]; 1-Me-Trp at 8; Cys6 and Cys16 bridged by methylene thioacetal (-S-CH2-S-); Sar at 12; C-terminal amide
# notes: Synthetic compstatin analogue; also called Comp No 19
# B11: Compound 9 (peptide)
# peptide: Ac-SEFCI[Trp(1-Me)]QDW[Sar]EHRCTEGE[AEEA][AEEA]K([γGlu-Gly-γGlu-C18 diacid])-NH2
# modifications: bridge 4-14 via methylene thioacetal ‑S‑CH2‑S‑ (CH2I2, DIPEA)
# notes: Synthetic compstatin analogue; also called Comp No 9
# Biological target: T1, Human C3 (Complement tech cat #A113c) (human, UniProt P01024 23-1663)
# T1 construct: Purified human C3 immobilised by amine coupling in the SPR assay; in the haemolysis assay the C3 is that of diluted human serum; Native C3 is a two-chain (beta and alpha) protein made from one precursor; also called complement factor C3
# T1 sequence (P01024 23-1663 limits assumed): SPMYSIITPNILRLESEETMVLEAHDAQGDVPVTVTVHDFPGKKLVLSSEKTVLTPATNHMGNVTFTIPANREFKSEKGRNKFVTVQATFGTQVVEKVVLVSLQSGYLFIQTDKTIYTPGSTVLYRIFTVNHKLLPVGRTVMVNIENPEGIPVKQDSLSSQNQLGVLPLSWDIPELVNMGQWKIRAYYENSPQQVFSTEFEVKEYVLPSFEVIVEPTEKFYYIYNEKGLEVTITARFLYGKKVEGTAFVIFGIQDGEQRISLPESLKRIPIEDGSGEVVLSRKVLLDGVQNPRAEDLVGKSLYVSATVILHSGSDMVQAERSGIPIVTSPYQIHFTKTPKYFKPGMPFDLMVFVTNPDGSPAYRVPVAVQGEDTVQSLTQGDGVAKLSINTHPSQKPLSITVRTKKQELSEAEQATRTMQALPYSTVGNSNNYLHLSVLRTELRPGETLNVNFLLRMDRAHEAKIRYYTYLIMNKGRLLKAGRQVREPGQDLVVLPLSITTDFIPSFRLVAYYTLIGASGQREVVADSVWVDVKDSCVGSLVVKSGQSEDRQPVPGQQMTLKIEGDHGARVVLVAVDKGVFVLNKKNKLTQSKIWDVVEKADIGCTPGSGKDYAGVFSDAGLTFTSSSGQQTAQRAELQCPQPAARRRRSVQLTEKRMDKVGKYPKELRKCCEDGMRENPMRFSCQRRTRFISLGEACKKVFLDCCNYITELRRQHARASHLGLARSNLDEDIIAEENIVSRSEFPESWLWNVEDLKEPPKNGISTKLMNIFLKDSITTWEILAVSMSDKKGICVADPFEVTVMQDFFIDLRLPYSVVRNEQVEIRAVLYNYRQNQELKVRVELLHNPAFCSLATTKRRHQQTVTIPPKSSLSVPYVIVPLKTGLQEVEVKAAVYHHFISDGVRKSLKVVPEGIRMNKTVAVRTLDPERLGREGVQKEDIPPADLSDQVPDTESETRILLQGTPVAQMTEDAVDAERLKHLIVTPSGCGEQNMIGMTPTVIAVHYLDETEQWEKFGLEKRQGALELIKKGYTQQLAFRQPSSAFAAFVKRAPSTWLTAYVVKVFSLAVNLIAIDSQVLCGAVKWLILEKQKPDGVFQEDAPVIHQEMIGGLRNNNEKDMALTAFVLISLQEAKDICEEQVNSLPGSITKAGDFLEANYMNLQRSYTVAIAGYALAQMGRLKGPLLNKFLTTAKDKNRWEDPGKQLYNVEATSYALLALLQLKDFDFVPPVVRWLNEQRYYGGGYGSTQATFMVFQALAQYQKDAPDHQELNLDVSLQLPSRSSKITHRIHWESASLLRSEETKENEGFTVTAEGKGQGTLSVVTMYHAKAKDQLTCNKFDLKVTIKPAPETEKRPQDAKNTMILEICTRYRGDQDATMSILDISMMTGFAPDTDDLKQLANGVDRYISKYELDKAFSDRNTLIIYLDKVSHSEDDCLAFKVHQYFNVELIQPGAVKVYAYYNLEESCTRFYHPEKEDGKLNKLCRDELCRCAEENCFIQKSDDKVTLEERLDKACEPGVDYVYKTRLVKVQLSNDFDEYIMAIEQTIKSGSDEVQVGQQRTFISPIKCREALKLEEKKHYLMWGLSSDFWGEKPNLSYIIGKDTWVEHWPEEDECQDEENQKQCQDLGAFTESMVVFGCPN
# Test: SPR (Biacore X100, 25 C), human C3 amine-coupled on CM5 chip, peptide as analyte, 1:1 Langmuir fit
# Details: not given
# Protocol: Surface plasmon resonance (SPR) was used to characterize peptides with respect to their binding affinity (Kd) for C3.
# For interaction experiments, a multi-cycle experiment approach was used and performed using a BiacoreX100™ instrument (GE Healthcare) at 25° C. Peptides were injected in increasing concentration series (5 different concentrations and buffer reference) for 180 seconds at a flow rate of 30 μL/min in a buffer consisting of 50 mM Tris buffer at pH 7.4, with 150 mM NaCl and 0.05% Tween20. This was followed by a dissociation period for 10 min.
# Sensorgrams were double-referenced (reference surface, blanks) prior to analysis of the kinetic profiles by globally fitting data to a 1:1 Langmuir binding model to obtain association and dissociation rates for calculation of the equilibrium dissociation constant Kd (Table 3). Each peptide was tested at in at least 2 independent experiments.
row,Kd [nM],Molecule
1,21,B1
2,12,B2
3,16,B3
4,25,B4

# Tested on: classical complement pathway
# Test: In vitro haemolysis assay (inhibition of classical complement pathway)
# Assay type: cell-based
# Details: human serum, sensitized sheep RBC, 30 minutes at 37° C., absorbance at 405 nm, n=>2; read-out: IC50, inhibition of hemolysis
# Protocol: The in vitro effect of some of the compounds described herein was assessed by measuring their inhibitory effect of the classical complement pathway in a haemolysis assay.
# Briefly, compounds described herein and reference compounds were dissolved in DMSO and diluted in Tris/Casein Assay Buffer (10 mM Tris, 145 mM NaCl, 0.5 mM MgCl2, 0.15 mM CaCl2, and 0.1% W/V casein, adjusted to pH 7.4) as 9-point serial dilutions in a 96-well plate. Sensitized sheep red blood cells (RBC) coated with rabbit anti-sheep erythrocyte antiserum (Complement Technology, Inc., TX, USA) were washed in Tris/asein Assay Buffer. 50 μL from each well of diluted compound was added to a 96-well plate containing 50 μL diluted human serum (Complement Technology, Inc., TX, USA) and incubated for 15 minutes at room temperature. The serum dilution factor was optimized for every serum batch to obtain 70-90% of maximal haemolysis using the protocol. Then 50 μL sensitized sheep RBCs were added to all wells ([…]).
# After 30 minutes of incubation at 37° C. with gentle agitation, the reaction was stopped by addition of 50 μL Tris STOP Buffer per well (10 mM EDTA, 10 mM Tris, 145 mM NaCl adjusted to pH 7.4). The RBCs were then removed by centrifugation and the resulting supernatant measured for hemolysis by absorbance at 405 nm.
# The response was normalized relative to a positive and negative control (vehicle) to calculate the IC50 (nM) from the concentration response curve using the 4-parameter logistic (4PL) nonlinear model for curve fitting (Table 2). All values are based on n=>2 independent determinations.
row,Molecule,IC50 [nM]
1,"CC[C@H](C)[C@@H]1NC(=O)[C@@H](NC(=O)[C@H](Cc2ccccc2)NC(=O)[C@H](CCC(=O)O)NC(=O)[C@H](CCC(N)=O)NC(=O)[C@H](CCCCN)NC(=O)[C@H](CO)NC(C)=O)CSCSC[C@@H](C(=O)N[C@H](C(=O)N[C@@H](CCC(=O)O)C(=O)NCC(=O)N[C@@H](CCC(=O)O)C(=O)NCCOCCOCC(=O)NCCOCCOCC(=O)N[C@@H](CCCCNC(=O)CC[C@H](NC(=O)CNC(=O)CC[C@H](NC(=O)CCCCCCCCCCCCCCCCC(=O)O)C(=O)O)C(=O)O)C(N)=O)[C@@H](C)O)NC(=O)[C@H](CCCNC(=N)N)NC(=O)[C@H](Cc2c[nH]cn2)NC(=O)[C@H](CCC(=O)O)NC(=O)CN(C)C(=O)[C@H](Cc2c[nH]c3ccccc23)NC(=O)[C@H](CC(=O)O)NC(=O)[C@H](CCC(N)=O)NC(=O)[C@H](Cc2cn(C)c3ccccc23)NC1=O [Compound 26, Ac-SKQEF[C(1)]I[1-Me-Trp]QDW[Sar]EHR[C(1)]TEGE[Peg3][Peg3]-K([17-Carboxy-heptadecanoyl][yGlu]G[yGlu])-NH2] (Ac-SKQEFCI[Trp(1-Me)]QDW[Sar]EHRCTEGE[AEEA][AEEA]K([γGlu-Gly-γGlu-C18 diacid])-NH2; linker 6-16 via CH2)",< 100
2,"CC[C@H](C)[C@H](NC(=O)[C@H](N)Cc1ccc(O)cc1)C(=O)N[C@H]1CSSC[C@@H](C(=O)N(C)[C@H](C(N)=O)[C@@H](C)CC)NC(=O)[C@H](CCCNC(=N)N)NC(=O)[C@H](Cc2c[nH]cn2)NC(=O)[C@H](C)NC(=O)CN(C)C(=O)[C@H](Cc2c[nH]c3ccccc23)NC(=O)[C@H](CC(=O)O)NC(=O)[C@H](CCC(N)=O)NC(=O)[C@H](Cc2cn(C)c3ccccc23)NC(=O)[C@H](C(C)C)NC1=O [Cp40, H-{d}YIC(*)V[1-Me-Trp]QDW[SarJAHRC(*)[N-Me-Ile]-NH2, reference compound]",< 100
3,Ac-EGSAY[C(1)]I[1-Me-Trp]QDWGEHR[C(1)][Sar]EK[yGlu]-K([17-Carboxy-heptadecanoyl][yGlu][Peg3][Peg3])-NH2 [Compound 3],< 500
4,Ac-EQEVF[C(1)]I[1-Me-Trp]QDW[Sar]EHR[C(1)]TEGE[Peg3][Peg3]-K([17-Carboxy-heptadecanoyl][yGlu]G[yGlu])-NH2 [Compound 22],< 100
5,Ac-GEF[C(1)]I[1-Me-Trp]QDWGEHR[C(1)][Sar]EAE[Peg3][Peg3]-K([17-Carboxy-heptadecanoyl][yGlu]G[yGlu])-NH2 [Compound 6],< 500
6,Ac-KSGEF[C(1)]I[1-Me-Trp]QDW[Sar]EHR[C(1)]TEGE[Peg3][Peg3]-K([17-Carboxy-heptadecanoyl][yGlu]G[yGlu])-NH2 [Compound 21],< 100
7,Ac-SEFC(2)I[1-Me-Trp]QDWGEHRC(2)TGAES-NH2 [Compound 31],< 250
8,Ac-SEF[C(1)]IWQDW[Sar]EHR[C(1)]TEGE[Peg3]ES-K([17-Carboxy-heptadecanoyl][yGlu])-NH2 [Compound 16],< 1000
9,Ac-SEF[C(1)]IYQDW[Sar]EHR[C(1)]TEGE[Peg3]ES-K([17-Carboxy-heptadecanoy!][yGlu])-NH2 [Compound 17],< 500
10,Ac-SEF[C(1)]I[1-Me-Trp]QDWGEHR[C(1)]TEGE[Peg3]ES-K([17-Carboxy-heptadecanoyl]-[yGlu]-NH2 [Compound 5],< 500
11,Ac-SEF[C(1)]I[1-Me-Trp]QDWGEHR[C(1)]TGAES[Peg3][Peg3]-K([17-Carboxy-heptadecanoyl][yGlu]G[yGlu])-NH2 [Compound 14],< 250
12,Ac-SEF[C(1)]I[1-Me-Trp]QDWGEHR[C(1)][Sar]EGA-K([17-Carboxy-heptadecanoyl]-[yGlu]G[Peg3][yGlu][Peg3]-NH2 [Compound 4],< 500
13,Ac-SEF[C(1)]I[1-Me-Trp]QDW[SarJAHR[C(1)]TEGE[Peg3]ES-K([17-Carboxy-heptadecanoyl][yGlu])-NH2 [Compound 13],< 250
14,Ac-SEF[C(1)]I[1-Me-Trp]QDW[Sar]EHR[C(1)][Sar]E[Peg3][Peg3]-K([17-Carboxy-heptadecanoyl]-[yGlu]G[yGlu]-NH2 [Compound 8],< 500
15,Ac-SEF[C(1)]I[[1-Me-Trp]QDW[Sar]EHR[C(1)]TEGE[Peg3]ES-K([17-Carboxy-heptadecanoyl][yGlu])-NH2 [Compound 11],< 250
16,Ac-SEY[C(1)]I[1-Me-Trp]QDW[Sar]EHR[C(1)]TEGE[Peg3]ES-K([17-Carboxy-heptadecanoyl][yGlu])-NH2 [Compound 18],< 250
17,Ac-YEQAF[C(1)]I[1-Me-Trp]QDW[Sar]EHR[C(1)]TEGE[Peg3]ES-K([17-Carboxy-heptadecanoyl][yGlu]G[yGlu])-NH2 [Compound 30],< 100

# Biological target: T1, Human C3 (Complement tech cat #A113c)
# Test: cell-based or functional assay
# Details: not given
row,Molecule,"IC50 [nM], in vitro inhibition of hemolysis (classical complement pathway; human serum, sensitized sheep RBC) [nM]"
1,B5,< 100
2,B6,< 100
3,B7,< 100
4,B1,< 500
5,B8,< 250
6,B9,< 250
7,B2,< 100
8,B10,< 250
9,B3,< 250
10,B4,< 100
11,B11,< 250
